Measured values as given in US20040241708A1, “Recombinant vector for transforming strain to detect benzoic acid and derivatives thereof, transformant containing the recombinant vector, and method for detecting benzoic acid and derivatives thereof using the transformant” (priority 2003, published 2004).

Tested on: transformant EBNAG1 (E. coli RFM443/pNAG1, nagR-PnagG::luxCDABE)
Assay: Detectability of transformant EBNAG1 on benzoic acid and derivatives (bioluminescence response)
Type: cell-based, Escherichia coli
Conditions: for bioluminescence intensity: EBNAG1, 0.1953125-12.5 mM, 3 hours after seeding, FIGS. 3a and 3b; for minimal effective concentration: Escherichia coli, read-out: MDC (Minimum detection concentration)
Experimental: The EBNAG1 strain was cultivated in a 100 ml LB medium supplemented with 50 μg/ml ampicillin at 30° C. until the absorbance reached 0.08 (at 600 nm). 100 μl of aliquot was taken from the culture for the measurement of the bioluminescence intensity, and was then poured on each well of an opaque96-well plate [Microlite™, Thermo Labsystems, USA] containing chemicals to be tested (benzoic acid concentrations: 12.5, 6.25, 3.125, 1.5625, 0.78125, 0.390625 and 0.1953125 mM, and salicylic acid concentrations: 12.5, 6.25, 3.125, 1.5625, 0.78125, 0.390625 and 0.1953125 mM). The well plates were placed in a 96-well microtiter plate reader (MLX Microtiter® Plate Luminometer, DYNEX Technology, USA) to measure the bioluminescence intensity.
FIGS. 3a and 3b show the results of bioluminescent signals obtained from EBNAG1 after seeding benzoic acid and salicylic acid as a representative benzoic acid derivative at various concentrations, respectively.

SMILES	bioluminescence intensity	minimal effective concentration [µM]
O=C(O)c1ccccc1O [Salicylic acid]	increased in proportion to the salicylic acid concentrations	195
O=C(O)c1ccccc1 [Benzoic acid]	increased in proportion to the benzoic acid concentrations	390
O=C(O)c1cc(Cl)ccc1O [5-Chlorosalicylic acid]		390
O=C(O)c1cc(O)cc(O)c1 [3,5-Dihydroxybenzoic acid]		3130
O=C(O)c1ccc(O)c(O)c1 [3,4-Dihydroxybenzoic acid]		6250
O=C(O)c1ccc(Cl)cc1O [4-Chlorosalicylic acid]		< 390
COc1ccc(CO)cc1OC [3,4-Dimethoxybenzylalcohol]		390
O=C(O)c1ccc(O)cc1O [2,4-Dihydroxybenzoic acid]		3130
